The target in the assay is T1, T. thermophilus GluRS (glutamyl-tRNA synthetase) (Thermus thermophilus, UniProt P27000).
T1 sequence (P27000 1-468): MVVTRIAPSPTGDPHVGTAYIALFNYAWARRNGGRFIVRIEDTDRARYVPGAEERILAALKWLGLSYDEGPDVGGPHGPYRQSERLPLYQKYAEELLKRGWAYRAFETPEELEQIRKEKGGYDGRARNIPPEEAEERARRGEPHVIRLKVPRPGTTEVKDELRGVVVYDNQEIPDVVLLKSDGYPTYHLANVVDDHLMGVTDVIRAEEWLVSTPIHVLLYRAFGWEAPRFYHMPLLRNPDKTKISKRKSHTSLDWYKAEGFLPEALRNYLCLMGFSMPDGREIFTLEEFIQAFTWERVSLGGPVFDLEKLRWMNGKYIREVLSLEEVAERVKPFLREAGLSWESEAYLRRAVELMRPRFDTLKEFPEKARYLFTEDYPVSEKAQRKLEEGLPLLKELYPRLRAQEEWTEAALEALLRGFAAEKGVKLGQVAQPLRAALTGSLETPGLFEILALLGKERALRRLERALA
The experiment in a line: intrinsic tryptophan fluorescence titration. The format is binding.

Molecules are shown by their SMILES.

By Kd is commonly meant the constant that tells how readily two partners part at equilibrium. Low values mean tighter binding, high ones weaker binding. `Nc1ncnc2c1ncn2[C@@H]1O[C@H](COP(=O)(O)OP(=O)(O)OP(=O)(O)O)[C@@H](O)[C@H]1O` [ATP] returned a dissociation constant Kd of 50 ± 12 µM.

(Values after paper PMC3640428 (Journal of the American Chemical Society, 2013).)
